# Reference: patent EP1510220B1 (priority 1993, dated 1994)
# Columns and labels:
# [1] = Proliferation of explant-derived (EX) human VSMC cultures; format: cell-based; details: human, aortic vsmc ex cultures
# Protocol: (§1) Human aortic VSMC cultures. Adult human VSMC were obtained from 6 transplant donors (either sex, age range from 3 to 54 years) using the enzyme dispersal or explant technique. In one case, the same donor (a person) was used to establish both an enzyme-dispersed (ED) and explant-derived (EX) cell culture. Prior to enzyme-dispersion or explanting treatment, human aortas were obtained within 18 h of death. The endothelium layer was removed with a scalpel blade and strips of smooth muscle cells (tunica media) were removed with forceps and chopped into small pieces (1 mm^3).
# (§2) EX Cultures. The aortic pieces were washed once with D-MEM + 10% FCS, resuspended in a small volume of fresh D-MEM + 10% FCS, and transferred to culture flasks or Petri dishes. The pieces were allowed to sediment onto the plastic and were evenly distributed (≈ 4 pieces/cm^2). Cells started to grow out from the explants after 3-7 d in culture. The aortic pieces were removed during the third week in culture, and the cells adhering to the plastic were allowed to grow to confluence for a further week. The cells were then subcultured every 4-5 days by releasing them with trypsin/EDTA and diluting them 1:2 in D-MEM + 10% FCS. Subcultured cells were incubated with fresh D-MEM + 20% FCS as described for ED cultures.
# (§3) Cell counting, DNA synthesis assays and assays for total and active TGF-beta were performed as described in Example 7.
# human EX cultures = experiment: as above; format: cell-based; details: Homo sapiens, VSMC
# Protocol: as §1, §2, §3
# TGF-beta = TGF-beta activity in medium conditioned on rat vascular smooth muscle cells (MvLu cell assay); format: cell-based; details: cells treated for 96 hours in 10% FCS
# Protocol: Assays for TGF-Beta. The TGF-beta activity present in medium conditioned on various cells was determined by DNA synthesis assay on mink lung […] (MvLu) cells; a modification of the assay described in Danielpour et al., J. Cell. Physiol., 138: 79-83, 1989. MvLu cells were subcultured at 1:5 dilution in DMEM + 10% FCS. After 24 hours, the medium was replaced with the conditioned medium to be tested in the absence or presence of the neutralizing antiserum to TGF-beta at 10 micrograms/ml. DNA synthesis during a 1 hour pulse of [^3H]-thymidine (5 microcuries/ml) was determined 23 hours after addition of the test medium. TGF-beta activity was calculated as the proportion of the inhibition of DNA synthesis which was reversed in the presence of neutralizing antibody, using a standard curve to convert the inhibition values into quantities of TGF-beta. The TGF-beta1 standards and conditioned media both contained 10% FCS in DMEM.
# TGF-beta1 mRNA = experiment: cells; details: Rattus norvegicus, 24 h, read-out: increase of TGF-beta1 mRNA
# [2] = tested on: Rat vascular smooth muscle cells; experiment: Proliferation of rat vascular smooth muscle cells by cell counting; format: cell-based
# Protocol: Cell culture, DNA synthesis assay and cell counting. Rat vascular smooth muscle cells were cultured after enzymatic dispersion of the aortic media from 12-17 week old Wistar rats as described in Grainger et al., Biochem. J., 277: 145-151, 1991. When the cells reached confluence (after about 6 days) the cells were released with trypsin/EDTA (available from Gibco) and diluted 1:2 in Dulbecco's modification of Eagle's medium (DMEM; available from ICN/Flow) supplemented with 100 U/ml penicillin and 10% fetal calf serum (FCS). The cells were then replated on tissue culture plastic (available from ICN/Flow) at approximately 1 x 10^4 cells/cm^2. The cells were subcultured repeatedly in this way when confluence was attained (about every 4 days), and the cells were used between passages 6 and 12.
# Cells were prepared for counting by hemocytometer from triplicate culture dishes as described in Grainger et al., Biochem. J., 277:145-151, 1991. Cells were also counted by direct microscopic observation of gridded culture dishes. The grids were scored into the plastic on the inner surface, so that the cells could not migrate into or out of the area being counted during the experiment. Cells in each of four squares in two separate wells were counted at each time point. All cell counting experiments were repeated on at least three separate cultures.
# A stock solution of tamoxifen (5 mM; available from ICI Pharmaceuticals) was made up in 10% ethanol (EtOH) and diluted in DMEM and 10% FCS to give the final concentration. The effects of each tamoxifen concentration were compared with the effects observed in control wells containing the same final concentration of the ethanol vehicle. Recombinant TGF-beta (available from Amersham International) was dissolved in 25 mM Tris/Cl to give a 5 microgram/ml stock solution and sterile filtered through a Spinnex Tube (such as a Centrex Disposable Microfilter Unit available from Rainin Instrument Company, Inc., Woburn, MA). Neutralizing antiserum to TGF-beta (BDA19; available from R & D Systems) was reconstituted in sterile MilliQ water (available from Millipore Corporation, Bedford, MA). At 10 micrograms/ml, this antibody completely abolished the activity of 10 ng/ml recombinant TGF-beta on subcultured (8th passage) vascular smooth muscle cells.
# [3] = tested on: B054 cells (baboon smooth muscle cells); experiment: cells; format: cell-based
Compound,MCC [1],"inhibition at 0.5 µM (human EX cultures; 0.5 µM, 96 h in D-MEM + 20% FCS, vs ethanol vehicle, read-out: inhibition of the increase in cell number)","inhibition at 5 µM (human EX cultures; 5 µM, read-out: inhibition of the increase in cell number)",IC50 (human EX cultures; read-out: half-maximal inhibitory dose),increase of TGF-beta activity in the medium (TGF-beta),fold induction at 10 µM (TGF-beta1 mRNA),cells that had divided by 64 hours ([2]; 33 micromolar),"time taken for 50% of the cells to divide after stimulation by serum ([2]; 33 micromolar, n=3, vehicle 35 +/-3 hours)","onset of increase in cell number after serum stimulation ([2]; 33 micromolar, time lapse photomicroscopy)","rate of proliferation ([2]; 50 micromolar with 10 micrograms/ml neutralizing antiserum against TGF-beta, 10% FCS)","reduction of the increase in cell number ([2]; 50 micromolar, 96 hours following the addition of serum, n=3, 5760 min, 50 µM)","inhibition at 50 µM ([2]; Rattus norvegicus, 50 micromolar, 96 hours following the addition of serum, n=3, read-out: reduction of the increase in cell number)","IC (maximal) ([2]; Rattus norvegicus, DMEM + 10% FCS, read-out: concentrations giving maximal inhibition of the rate of proliferation)","IC50 ([2]; rat ED VSMC, read-out: half-maximal inhibition of proliferation)","minimum effective dose (MED), DNA assay ([3]; 5 minute exposure)","minimum effective dose (MED), DNA synthesis assay ([3]; 24 hour exposure)"
"CC/C(=C(\c1ccccc1)c1ccc(OCCN(C)C)cc1)c1ccccc1 [tamoxifen, trans-2-[4-(1,2-diphenyl-1-butenyl)phenoxy]-N,N-dimethylethylamine]",> 33 µM,27 ± 2%,33 ± 8%,30 to 100 nM,> 50 fold,~10,more than 90%,54 ± 2 h,no significant increase in cell number in the presence of tamoxifen until after 48 hours,proliferated at the same rate as control cells,66% +/-5.2,66%,> 33 µM,2000 to 5000 nM,–,–
cytochalasin B,–,–,–,–,–,–,–,–,–,–,–,–,–,–,10 µg/mL,0.1 µg/mL
